Series [1] in a line: Cytotoxicity against MCA-TK cells. Format: cell-based.
Series [2] can be described thus: Cytotoxicity against MCA cells. The series is classed as cell-based.
The nature of series [3]: Metabolic stability in mouse liver microsomes after 30 min. The series is classed as ADME, Microsome.
A short description of series [4]: Metabolic stability in mouse serum after 6 hrs. The series is classed as ADME, cell-free.

Two compounds from ChEMBL document CHEMBL1138268, “Synthesis and evaluation of cis-1-[4-(hydroxymethyl)-2-cyclopenten-1-yl]-5-[(124)I]iodouracil: a new potential PET imaging agent for HSV1-tk expression” (J Med Chem, 2007) can be followed below.

Molecules are shown by their SMILES.

Turning to `Nc1nc2c(ncn2COC(CO)CO)c(=O)[nH]1` [GANCICLOVIR], the IC50 in series [1] worked out at 0.15 µM; in series [2] it was 270 µM.

For `O=c1[nH]c(=O)n([C@H]2C[C@H](O)[C@@H](CO)O2)cc1I` [IDOXURIDINE], the half-life in series [3] is 1.24 h; in series [4], 22.6 h.
